# Experimental data published in patent US7196103B2, “Indole derivatives as factor Xa inhibitors” (Sanofi-Aventis Deutschland GmbH, priority 2003, dated 2007).
# Molecular target: T1, human factor Xa (Homo sapiens, UniProt P00742)
# T1 construct: human factor Xa; purchased Enzyme Research Laboratories, Inc; South Bend, Ind
# Assay: Factor Xa assay (chromogenic, inhibition of factor Xa activity)
# Assay type: biochemical
# Conditions: purified human factor Xa 0.5 nM, chromogenic substrate S-2765 140 μM, 25° C., pH 7.8; Ki calculated from IC50 corrected for substrate competition; read-out: Ki (inhibition constant) for the inhibition of factor Xa
# Experimental: Purified enzymes were used in chromogenic assays.
# The assay was performed by pre-incubating the compound of formula I plus enzyme for 10 min. Then the assay was initiated by adding substrate to obtain a final volume of 100 μl. The initial velocity of chromogenic substrate hydrolysis was measured by the change in absorbance at 405 nm using a Bio-tek Instruments kinetic plate reader (Ceres UV900HDi) at 25° C. during the linear portion of the time course (usually 1.5 min after addition of substrate).
# T1 sequence (P00742 235-488 limits assumed): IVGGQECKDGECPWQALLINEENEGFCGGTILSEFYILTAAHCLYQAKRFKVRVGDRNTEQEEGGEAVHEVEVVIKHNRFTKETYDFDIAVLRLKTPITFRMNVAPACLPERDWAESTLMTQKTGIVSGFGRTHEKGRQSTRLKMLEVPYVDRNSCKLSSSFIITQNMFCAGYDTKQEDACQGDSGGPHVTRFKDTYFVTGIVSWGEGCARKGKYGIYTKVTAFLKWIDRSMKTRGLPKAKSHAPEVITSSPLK
# T1 sequence (P00742 41-179 partner limits assumed): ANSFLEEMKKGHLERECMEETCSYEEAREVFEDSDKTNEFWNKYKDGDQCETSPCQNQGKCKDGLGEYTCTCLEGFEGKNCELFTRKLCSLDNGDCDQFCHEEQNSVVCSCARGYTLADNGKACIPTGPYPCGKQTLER
row,Ki [nM],SMILES
1,24,"CC(C)ONC(=O)c1ccc2c(c1)cc(C(=O)NC1CCN(C(C)C)CC1)n2Cc1cc(-c2ccc(Cl)s2)on1 [Example 10, 1-[5-(5-Chloro-thiophen-2-yl)-isoxazol-3-ylmethyl]-1H-indole-2,5-dicarboxylic acid 5-(isopropoxy-amide) 2-[(1-isopropyl-piperidin-4-yl)-amide]]"
2,375,"CC(C)N1CCC(NC(=O)c2cc3cc(C(=O)N4CCCOCC4)ccc3n2CC(=O)Nc2ccc(Cl)nc2)CC1 [Example 6, 1-[(6-Chloro-pyridin-3-ylcarbamoyl)-methyl]-5-([1,4]oxazepane-4-carbonyl)-1H-indole-2-carboxylic acid (1-isopropyl-piperidin-4-yl)-amide]"
3,14,"CC(C)N1CCC(NC(=O)c2cc3cc(C(=O)OCC4COC(=O)O4)ccc3n2Cc2cc(-c3ccc(Cl)s3)on2)CC1 (stereo not drawn) [Example 3, 1-[5-(5-Chloro-thiophen-2-yl)-isoxazol-3-ylmethyl]-2-(1-isopropyl-piperidin-4-ylcarbamoyl)-1H-indole-5-carboxylic acid 2-oxo-[1,3]dioxolan-4-ylmethyl ester]"
4,1,"Cc1oc(=O)oc1COC(=O)c1cccc2c1cc(C(=O)NC1CCN(C(C)C)CC1)n2Cc1cc(-c2ccc(Cl)s2)on1 [Example 14, 1-[5-(5-Chloro-thiophen-2-yl)-isoxazol-3-ylmethyl]-2-(1-isopropyl-piperidin-4-ylcarbamoyl)-1H-indole-4-carboxylic acid 5-methyl-2-oxo-[1,3]dioxol-4-ylmethyl ester]"
5,2,"COCCOC(=O)OC(C)OC(=O)c1cccc2c1cc(C(=O)NC1CCN(C(C)C)CC1)n2CC(=O)Nc1ccc(Cl)cn1 (stereo not drawn) [Example 13, 1-[(5-Chloro-pyridin-2-ylcarbamoyl)-methyl]-2-(1-isopropyl-piperidin-4-ylcarbamoyl)-1H-indole-4-carboxylic acid 1-(2-methoxy-ethoxycarbonyloxy)-ethyl ester]"
6,8,"CC(C)N1CCC(NC(=O)c2cc3cc(C(=O)N4CC(O)C4)ccc3n2CC(=O)Nc2ccc(Cl)cn2)CC1 [Example 11, 1-[(5-Chloro-pyridin-2-ylcarbamoyl)-methyl]-5-(3-hydroxy-azetidine-1-carbonyl)-1H-indole-2-carboxylic acid (1-isopropyl-piperidin-4-yl)-amide]"
7,124,"COc1cccc(Cn2c(C(=O)NC3CCN(C(C)C)CC3)cc3c(C(=O)N4CC(O)C4)cccc32)c1 [Example 9, 4-(3-Hydroxy-azetidine-1-carbonyl)-1-(3-methoxy-benzyl)-1H-indole-2-carboxylic acid (1-isopropyl-piperidin-4-yl)-amide]"
8,133,"COc1cccc(Cn2c(C(=O)NC3CCN(C(C)C)CC3)cc3c(C(=O)N4CC(OC)C4)cccc32)c1 [Example 8, 4-(3-Methoxy-azetidine-1-carbonyl)-1-(3-methoxy-benzyl)-1H-indole-2-carboxylic acid (1-isopropyl-piperidin-4-yl)-amide]"
9,9,"COCCOC(=O)OC(C)OC(=O)c1ccc2c(c1)cc(C(=O)NC1CCN(C(C)C)CC1)n2CC(=O)Nc1ccc(Cl)cn1 (stereo not drawn) [Example 5, 1-[(5-Chloro-pyridin-2-ylcarbamoyl)-methyl]-2-(1-isopropyl-piperidin-4-ylcarbamoyl)-1H-indole-5-carboxylic acid 1-(2-methoxy-ethoxycarbonyloxy)-ethyl ester]"
10,3,"CC(C)N1CCC(NC(=O)c2cc3c(C(=O)N4CCCOCC4)cccc3n2CC(=O)Nc2ccc(Cl)cn2)CC1 [Example 7, 1-[(5-Chloro-pyridin-2-ylcarbamoyl)-methyl]-4-([1,4]oxazepane-4-carbonyl)-1H-indole-2-carboxylic acid (1-isopropyl-piperidin-4-yl)-amide]"
11,11,"Cc1oc(=O)oc1COC(=O)c1ccc2c(c1)cc(C(=O)NC1CCN(C(C)C)CC1)n2Cc1cc(-c2ccc(Cl)s2)on1 [Example 15, 1-[5-(5-Chloro-thiophen-2-yl)-isoxazol-3-ylmethyl]-2-(1-isopropyl-piperidin-4-ylcarbamoyl)-1H-indole-5-carboxylic acid 5-methyl-2-oxo-[1,3]dioxol-4-ylmethyl ester]"
12,14,"CC(C)N1CCC(NC(=O)c2cc3c(C(=O)N4CC(O)C4)cccc3n2Cc2cc(-c3ccc(Cl)s3)on2)CC1 [Example 12, 1-[5-(5-Chloro-thiophen-2-yl)-isoxazol-3-ylmethyl]-4-(3-hydroxy-azetidine-1-carbonyl)-1H-indole-2-carboxylic acid (1-isopropyl-piperidin-4-yl)-amide]"
13,113,"CC(C)N1CCC(NC(=O)c2cc3cc(C(=O)N4CCCC4CO)ccc3n2Cc2cc(-c3ccc(Cl)s3)on2)CC1 (stereo not drawn) [Example 2, 1-[5-(5-Chloro-thiophen-2-yl)-isoxazol-3-ylmethyl]-5-(2-hydroxymethyl-pyrrolidine-1-carbonyl)-1H-indole-2-carboxylic acid (1-isopropyl-piperidin-4-yl)-amide]"
14,57,"CC(C)N1CCC(NC(=O)c2cc3cc(C(=O)N4CC(O)C4)ccc3n2Cc2cc(-c3ccc(Cl)s3)on2)CC1 [Example 1, 1-[5-(5-Chloro-thiophen-2-yl)-isoxazol-3-ylmethyl]-5-(3-hydroxy-azetidine-1-carbonyl)-1H-indole-2-carboxylic acid (1-isopropyl-piperidin-4-yl)-amide]"
15,22,"CC(C)N1CCC(NC(=O)c2cc3cc(C(=O)N4CCCOCC4)ccc3n2CC(=O)Nc2ccc(Cl)cn2)CC1 [Example 4, 1-[(5-Chloro-pyridin-2-ylcarbamoyl)-methyl]-5-([1,4]oxazepane-4-carbonyl)-1H-indole-2-carboxylic acid (1-isopropyl-piperidin-4-yl)-amide]"
